Results published in patent publication US10213445B2, “Compositions and methods of diazeniumdiolate-based prodrugs for treating cancer” (ARIZONA BOARD OF REGENTS ON BEHALF OF THE UNIVERSITY OF …, priority 2014, dated 2019).

Experiments:
[1] = Stability in phosphate buffer pH 7.4; format: physicochemical
Protocol: The newly synthesized HNO-releasing aspirin (IPA/NO-aspirin, 4) and NO-releasing aspirin (DEA/NO-aspirin, 8) were evaluated for the kinetic profile of NO and HNO release in buffer and cells.

HUVECs [2] = assay: Tube formation (angiogenesis) in Matrigel; format: cell-based, human; settings: 12 hours, 1 and 10 μM, vs control
Protocol: Cells in Matrigel were treated with A) DMSO, B) 1 μM or C) 10 μM IPA/NO-aspirin, D) 1 μM or E) 10 μM DEA/NO-aspirin at 37° C., and the extent of tube formation was measured after 12 h using a microscope.
The impact of the NONO-aspirin prodrugs on tube formation in HUVECs after 12 hours treatment was examined as a measure of angiogenesis.

MDA-MB-231 xenografts = assay: MDA-MB-231-GFP xenograft growth and brain metastasis in nude mice; format: in vivo; settings: daily injection of equimolar doses for five weeks; for size of the primary tumor (GFP fluorescence intensity, tumor mass): vs control
Protocol: The cells were allowed to grow for 14 d, and the animals (40) were randomly divided into four groups (control, aspirin, IPA/NO-aspirin or DEA/NO-aspirin). Treated groups were injected daily with equimolar doses of DEA/NO-aspirin or IPA/NO-aspirin (16 mg kg^−1) or aspirin (9 mg kg^−1)) or with DMSO for the next five weeks.
For examples utilizing mouse tumor model methods, the following procedure was instituted. Analysis of tumor growth was carried out using protocols approved by the Committee on the Ethics of Animal Experiments of the National Cancer Institute (RBB-144) and adhered with the recommendations in the United States National Research Council's “Guide for the Care and Use of Laboratory Animals,” the United States Public Health Service's “Guide for the Care and Use of Laboratory Animals” and the “Policy on Humane Care and Use of Laboratory Animals”. The vivarium was maintained at 23° C. on a 12 h light/12 h dark cycle with ad libitum access to food and water. Nude mice (n=40) under general anesthesia were implanted with 7.5×10^5 MDA-MB-231 cells transfected with GFP by injection underneath the fourth left mammary gland. Prior to implantation, pedal withdrawal and eyelid reflexes were examined to ensure that mice were under stage III of anesthesia. At 14 days post-inoculation, the mice were randomly divided into four groups and treated by daily injection of equimolar doses (10 μL of 100 mM stock) of aspirin (9.00 mg kg^−1), IPA/NO-aspirin (15.8 mg kg^−1) or DEA/NO-aspirin (16.3 mg kg^−1) or with vehicle (DMSO). After five weeks, the tumor size was measured using in vivo fluorescent imaging for quantification of the GFP tag. In brief, mice were under general anesthesia throughout the whole body imaging process, and GFP signals were captured and quantified in an Xenogen IVIS 100 Imaging System according to the manufacturer's protocol. To assess metastasis in the brain, the animals were subsequently sacrificed following the approved method and guidelines.

lung carcinoma cells = settings: selective compared to normal endothelial cells, read-out: IC50 (proliferation); cited from earlier work
HUVECs [3] = assay: Cytotoxicity toward HUVECs; format: cell-based, human; settings: previously determined
[4] = tested on: cleaved PARP in MDA-MB-231 cells; assay: PARP cleavage by Western blot; format: cell-based, human; settings: 1-44 h, preliminary analysis
Protocol: The cells were treated with 50 μM IPA/NO-aspirin (blue) or 75 μM DEA/NO-aspirin (green), respectively at 37° C., and protein was collected at various time points (1-44 h). Lanes 1-6 (20 μg of protein): IPA/NO-aspirin at 1, 3, 6, 10, 20, 44 h; […]: DEA/NO-aspirin at 1, 6, 10, 20, 30, 44 h; Lane 15: control. Cleaved PARP levels at different time points were quantified by Western blot with respect to control, which was treated as 100%. HPRT was used as the loading control.
Since a number of chemotherapies and radiation therapy are based on inducing DNA damage in cancer cells, inhibition of PARP by HNO donors may increase the efficacy of these treatments. Furthermore, IPA/NO-aspirin is able to not only induce DNA damage but also to impede DNA repair.

caspase-3 = assay: Caspase-3 activity in breast cancer cells; format: cell-based, human; settings: MDA-MB-231, MDA-MB-468, MCF-7; 0-100 μM, 24 h, 37° C.
Protocol: The cells were treated with various concentrations (0, 25, 50, 100 μM) of IPA/NO-aspirin (blue) or DEA/NO-aspirin (green) for 24 h at 37° C. Caspase-3 activity was determined by recording the fluorescence ( ? 485 nm, ? 535 nm) of the product formed by cleavage of the substrate, N-Ac-DEVD-N′-MC-R11. Data are plotted as mean±SD (n=3).
Caspases are cysteine-aspartate proteases that can trigger apoptosis through a signaling cascade. Caspase-3 is an effector protease that has active cysteine residues that are susceptible to S-nitrosation. The impact of this modification has been variously reported to lead to reversible inhibition and to activation.

[5] = Prodrug decomposition in cells; format: in vitro ADME; settings: A549 cells
MDA-MB-231 cells [6] = assay: Oxidation of DCF (oxidant level) in cells; format: cell-based, human; settings: 100 μM, 37° C., MDA-MB-231 as representative example
Protocol: DCF loaded cells were treated with IPA/NO-aspirin (blue), DEA/NO-aspirin (green), IPA/NO (magenta), DEA/NO (brown), aspirin (red) or DMSO (0.1%; black) at 37° C., and the fluorescence at 535 nm was measured in a time-dependent manner. Data are plotted as mean±SD (n=4).

MDA-MB-468 cells = assay: MTT cell viability; format: cell-based, human; settings: read-out: concentration for 50% reduction of viability (IC50), MDA-MB-468, 48 h, mean ± SD for three trials
Protocol: (§1) Figures are representative of three trials with data plotted as mean percentage versus untreated cells±SD of the four replicates per plate). Vehicle (DMSO or 10 mM NaOH) was added as a control to otherwise untreated cells.
(§2) For examples utilizing cell culture methods, the following procedure was instituted. Human breast adenocarcinoma cells (MDA-MB-231, MCF-7 and MDA-MB-468; American Type Culture Collection, Manassas, Va.) were grown as monolayers in RPMI 1640 (Invitrogen, Carlsbad, Calif.) supplemented with 10% FBS (Hyclone, Thermo Fisher Scientific Inc., Waltham, Mass.), penicillin (50 units mL^−1) and streptomycin ([…]; Life Technologies, Inc., Grand Island, N.Y.). Non-tumorigenic, human breast epithelial cells (MCF-10A; American Type Culture Collection) and HUVECs (Cell Applications, Inc., San Diego, Calif.) were grown as monolayers in endothelial growth media (Lonza Inc., US-Allendale, N.J. or Cell Applications, Inc., San Diego, Calif.). Cells were seeded at a density of 1×10^6 cells per 100 cm^2 culture dish and were incubated at 37° C. in 5% CO2 at 80% relative humidity. Single-cell suspensions were obtained by trypsinization (0.05% trypsin/EDTA, Invitrogen, Carlsbad, Calif.). MDA-MB-231 cells stably transfected with green fluorescent protein (GFP) and G418 antibiotic resistance gene were a generous gift from Dr. Aldona Karaczyn from the Maine Medical Center Research Institute, Scarborough, Me. MDA-MB-231-GFP cells were grown as described for MDA-MB-231 cells with the addition of […] ([…]) to ensure vector presence.
(§3) In this example, the impact of IPA/NO-aspirin and DEA/NO-aspirin was assessed compared to aspirin or the parent diazeniumdiolate on proliferation of four human breast cell lines: MDA-MB-231 (ER(−) adenocarcinoma), MDA-MB-468 (ER(−) adenocarcinoma), MCF-7 (ER(+) adenocarcinoma) and MCF-10A (non-tumorigenic, immortalized human breast epithelial cells).

MCF-7 cells = assay: MTT cell viability; format: cell-based, human; settings: read-out: concentration for 50% reduction of viability (IC50), MCF-7, 48 h, mean ± SD for three trials
Protocol: as §1, §2, §3

MCF-10A cells = assay: MTT cell viability; format: cell-based, human; settings: read-out: concentration for 50% reduction of viability (IC50), 48 h, did not reach a 50% reduction at 200 μM
Protocol: as §1, §2, §3

MDA-MB-231 cells [7] = assay: MTT cell viability; format: cell-based, human; settings: read-out: concentration for 50% reduction of viability (IC50), MDA-MB-231, 48 h, mean ± SD for three trials
Protocol: as §1, §2, §3

Compound	stability in buffer [1]	angiogenesis (tube formation) (HUVECs [2])	metastasis to the brain (GFP fluorescence) (MDA-MB-231 xenografts)	size of the primary tumor (GFP fluorescence intensity, tumor mass) (MDA-MB-231 xenografts)	IC50 (lung carcinoma cells) [µM]	cytotoxicity toward HUVECs (HUVECs [3])	level of cleaved PARP ([4]; 75 μM)	caspase-3 activity (caspase-3)	lifetime in cells relative to IPA/NO-aspirin [5]	oxidation of DCF (fluorescence intensity) (MDA-MB-231 cells [6])	IC50 (MDA-MB-468 cells) [µM]	IC50 (MCF-7 cells) [µM]	IC50 (MCF-10A cells) [µM]	IC50 (MDA-MB-231 cells [7]) [µM]	level of cleaved PARP ([4]; 50 μM)	time to complete decomposition in cells [5]
CCN(CC)[N+]([O-])=NOCOC(=O)c1ccccc1OC(C)=O [DEA/NO-aspirin, O2-(Acetylsalicyloyloxymethyl)-1-(N,N-Diethylamino)-diazen-1-ium-1,2-diolate]	relatively stable in phosphate buffer pH 7.4 for several hours	reduced angiogenesis	decreased metastasis compared to aspirin and untreated controls, the results were not statistically significant	substantial, although not statistically significant, reduction	100	neither IPA/NO-aspirin or DEA/NO-aspirin are appreciably cytotoxic	relatively short-lived	more modest in MDA-MB-231 and MCF7 cells	about three times longer-lived	minimal impact	90 ± 4	122 ± 3	> 200	102 ± 10	–	–
CC(=O)Oc1ccccc1C(=O)OCON=[N+]([O-])NC(C)C [IPA/NO-aspirin, O2-(Acetylsalicyloyloxymethyl)-1-(N-isopropylamino)-diazen-1-ium-1,2-diolate]	relatively stable in phosphate buffer pH 7.4 for several hours	reduced angiogenesis	decreased metastasis compared to aspirin and untreated controls, the results were not statistically significant	significant decrease	100	neither IPA/NO-aspirin or DEA/NO-aspirin are appreciably cytotoxic	–	activated caspase-3 in all three breast cancer lines	–	significant increase in fluorescence intensity	81 ± 2	93 ± 2	> 200	92 ± 1	increases the level of cleaved PARP in a longer-term fashion	approximately 3 hours
